US20250382298A1, “NITROGEN-CONTAINING COMPOUND AND USE THEREOF” (SUZHOU GENHOUSE BIO CO., LTD., priority 2022, published 2025)

Tests used:
HCT-116 cells [1] = assay: Detection of cell proliferation activity by CCK8 method (HCT-116); type: cell-based; settings: CCK8, 96 h
Summary of the method: (§1)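 Cells seeded at 1500/well (BT-549, 1640 medium) or 2000/well (HT-29, HCT-116, McCoy's 5A), treated next day with 9-point 1:5 dilutions from 10 μM final, triplicate, for 96 h. CCK8 read at 450 nm after 2 h at 37 °C; inhibition versus DMSO, IC50 by non-linear regression.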

HT-29 cells [2] = assay: Detection of cell proliferation activity by CCK8 method (HT-29); type: cell-based, human; settings: CCK8, 96 h
Summary of the method: as §1

HCT-116 cells [3] = assay: Mitotic index analysis, pH3 expression in HCT-116 cells; type: cell-based; settings: 24 h treatment
Summary of the method: (§2)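 HCT-116 or HT-29 cells treated 24 h with 9-point 3-fold dilutions from 10 μM, then fixed and immunostained for phospho-histone H3 with DRAQ5 counterstain. Near-infrared fluorescence read at 700/800 nm; pH3 expressed as % of DMSO control and EC50 fitted.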

KIF18A = KIF18A (Homo sapiens (Human), UniProt Q8NI77); assay: KIF18A enzymatic activity inhibition, ADP-Glo kit; type: biochemical; settings: 4 nM KIF18A, 30 μM ATP
Procedure: In this experiment, an ADP-Glo kit was used to detect the inhibitory activity of the compounds against KIF18A. Each compound was prepared into a 10 mM stock solution with DMSO, which was then diluted at 1:5 to obtain 9 gradients with the initial final concentration set at 10 μM. Meanwhile, a control group and a blank group were also set up. The reaction buffer consisted of 15 mM Tris (pH 7.5), 10 mM MgCl2, and 0.01% Pluronic F-68. 4 nM KIF18A (1467) and the test compound were added to a 384-well plate and incubated at 37° C. for 20 mm. Then, 30 μM ATP was added to initiate the enzymatic reaction, and the plate was incubated at room temperature for 15 min. Finally, the ADP-Glo reagent was added to detect the luminescence intensity, where the luminescence intensity is directly proportional to the ADP content. Inhibition rate (%)=[…]. Sample signal is the value of the compound group, and DMSO signal is the value of the DMSO control group. Then, the inhibition rate at each concentration was calculated, and the IC50 was determined by fitting using the GraphPadPrism 7.0 software.

HT-29 cells [4] = assay: Mitotic index analysis, pH3 expression in HT-29 cells; type: cell-based, human; settings: 24 h treatment
Summary of the method: as §2

BT-549 cells = assay: Detection of cell proliferation activity by CCK8 method (BT-549); type: cell-based; settings: CCK8, 96 h
Summary of the method: as §1

OVCAR3 cells [5] = assay: Detection of OVCAR3 cell proliferation activity by CTG method; type: cell-based; settings: CellTiter-Glo, 7 days
Description: This assay can be used to examine the potency of compounds in inhibiting the proliferation of tumor cells (OVCAR3, HT-29, BT-549, HCT-116). A lower IC50 value indicates high potency of the compound as a KIF18A inhibitor in the following assay setup,
1640 medium; fetal bovine serum; penicillin/streptomycin antibiotics purchased from Wisent; CellTiter-Glo (chemiluminescence detection reagent for cell viability) reagent purchased from Promega; OVCAR3 cell line purchased from Nanjing Cobioer Biosciences Co., Ltd.; Nivo multimode microplate reader (PerkinElmer),
OVCAR3 cells were seeded into a white 96-well plate, with 80 μL of cell suspension containing 2000 OVCAR3 cells added to each well. The cell plate was incubated in a CO2 incubator overnight.
A test compound was 5-fold diluted to the 8th concentration (i.e., from 2 mM to […]) using a multichannel pipette, with duplicate wells set up. To an intermediate plate was added 78 μL of medium, and the serially diluted compound was transferred to the corresponding wells of the intermediate plate at 2 μL/well. The mixture was mixed well and then transferred to the cell plate at 20 μL/well. The concentration of the compound transferred to the cell plate ranged from 10 μM to 0.026 nM. The cell plate was incubated in a CO2 incubator for 7 days. Another cell plate was prepared and read for signal values on the day of compound addition, and these values were used as the maximum values (the Max value in the equation below) in data analysis. To this cell plate was added the chemiluminescence detection reagent for cell viability at 25 μL/well, and the luminescence signals were stabilized by incubation at room temperature for 10 min. Readings were taken using the multimode microplate reader.
To the cell plate was added the chemiluminescence detection reagent for cell viability at 25 μL/well, and the luminescence signals were stabilized by incubation at room temperature for 10 mm. Readings were taken using the multimode microplate reader, […]

[6] = Pharmacokinetic test in rats; type: in vivo; settings: SD rats, PO @5mpk; for AUC / Cmax / half-life: rat, plasma, 5 mg/kg; for half-life: read-out: t½ (converted)
Procedure: In this example, the pharmacokinetic behavior of the compounds after intravenous injection (IV) and intragastric (PO) administration in SD rats was tested.
On the day of administration, rats were weighed for actual body weight and the administration volume was calculated. Each compound was tested in two groups with 3 rats in each group; one group was subjected to administration by single intravenous injection, and the other group was subjected to single intragastric administration. Whole blood samples were collected via the jugular vein at prescribed time points (0.25 h, 0.5 h, 1 h, 2 h, 4 h, 8 h, and 24 h after administration). After blood sample collection, the samples were immediately transferred to labeled commercial sample tubes containing K2-EDTA (0.85-1.15 mg), followed by centrifugation (3200×g, 4° C., 10 min) and plasma collection. The plasma was transferred to a pre-cooled centrifuge tube, frozen in dry ice, and then stored in an ultra-low temperature freezer at −60° C. or lower until the LC-MS/MS analysis.
Plasma concentrations were determined by the LC-MS/MS method. Plasma drug concentration data for the compounds were processed using a non-compartmental model in the WinNonlin Version 6.3 (Pharsight, Mountain View, CA) pharmacokinetic software. The relevant pharmacokinetic parameters were calculated by a linear-log trapezoidal method.

OVCAR3 cells [7] = assay: Detection of cell proliferation activity by CCK8 method (OVCAR3); type: cell-based
Summary of the method: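 OVCAR3 tumor cells in log-phase growth were trypsinized, counted and plated at 180 μL per well in 96-well plates, with PBS in the outer wells. The following day, compounds were added in 9 concentrations (1:5 dilutions starting at 10 μM final) in triplicate alongside DMSO controls. After 96 h, medium was swapped for 100 μL medium containing 10% CCK8. Plates were incubated 2 h at 37° C and read at 450 nm. Background-corrected inhibition relative to DMSO was fitted by non-linear regression in GraphPad Prism 7.0 to obtain IC50.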

Chain of KIF18A (Q8NI77 1-467): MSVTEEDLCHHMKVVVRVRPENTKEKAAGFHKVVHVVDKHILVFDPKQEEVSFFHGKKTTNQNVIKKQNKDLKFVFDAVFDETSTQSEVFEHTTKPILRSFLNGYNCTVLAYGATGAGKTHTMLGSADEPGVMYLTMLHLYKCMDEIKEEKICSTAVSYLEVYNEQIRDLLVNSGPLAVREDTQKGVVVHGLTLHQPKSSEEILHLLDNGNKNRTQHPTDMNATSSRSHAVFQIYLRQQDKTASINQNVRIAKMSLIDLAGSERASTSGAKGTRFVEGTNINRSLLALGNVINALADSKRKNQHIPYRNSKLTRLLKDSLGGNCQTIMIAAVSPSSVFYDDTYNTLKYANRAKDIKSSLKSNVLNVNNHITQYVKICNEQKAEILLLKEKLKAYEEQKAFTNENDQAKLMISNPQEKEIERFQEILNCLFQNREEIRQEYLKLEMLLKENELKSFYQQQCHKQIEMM

IC50 (HCT-116 cells [1]; Homo sapiens)	IC50 (HT-29 cells [2]; Homo sapiens)	EC50 (HCT-116 cells [3]; Homo sapiens)	IC50 (KIF18A)	EC50 (HT-29 cells [4]; Homo sapiens)	IC50 (BT-549 cells; Homo sapiens)	IC50 (OVCAR3 cells [5]; Homo sapiens, OVCAR-3, 168 h)	F [6]	AUC [6]	Cmax [6]	half-life [6]	IC50 (OVCAR3 cells [7]; Homo sapiens, OVCAR-3, CCK8, 96 h)	Structure (SMILES)	IC50 (HCT-116 cells [1])	IC50 (OVCAR3 cells [7]; CCK8, 96 h)	IC50 (HT-29 cells [2])	EC50 (HCT-116 cells [3])	EC50 (HT-29 cells [4])	IC50 (BT-549 cells)	IC50 (OVCAR3 cells [5])
> 10000 nM	146 nM	> 10000 nM	15.2 nM	139 nM	109 nM	36 nM	25%	0.604 µM·h	217 nM	2.4 h		O=C(Nc1cn2ccnc2c(N2CCOCC2)n1)c1ccc(NS(=O)(=O)CCO)cc1N1CCC2(CC1)CC2 [Compound 11]							
> 10000 nM	73 nM	> 10000 nM	10.2 nM	51 nM	34 nM	15 nM	18.3%	2.41 µM·h	526 nM	2.6 h		O=C(Nc1cn2ccnc2c(N2CCCCC2)n1)c1ccc(NS(=O)(=O)CCO)cc1N1CCC2(CC1)CC2 [Compound 12]							
> 10000 nM	335 nM	> 10000 nM	63.4 nM	108 nM	1040 nM	220 nM					206 nM	O=C(Nc1cn2ccnc2c(N2CC3(CCC3)C2)n1)c1ccc(NS(=O)(=O)CCO)cc1N1CCC2(CC1)CC2 [Compound 29]							

Structure (SMILES)	IC50 (HCT-116 cells [1]; Homo sapiens)	IC50 (HT-29 cells [2]; Homo sapiens)	EC50 (HCT-116 cells [3]; Homo sapiens)	IC50 (KIF18A)	EC50 (HT-29 cells [4]; Homo sapiens)	IC50 (BT-549 cells; Homo sapiens)	IC50 (OVCAR3 cells [5]; Homo sapiens, OVCAR-3, 168 h)	F [6]	AUC [6]	Cmax [6]	half-life [6]	IC50 (OVCAR3 cells [7]; Homo sapiens, OVCAR-3, CCK8, 96 h)	IC50 (HCT-116 cells [1])	IC50 (OVCAR3 cells [7]; CCK8, 96 h)	IC50 (HT-29 cells [2])	EC50 (HCT-116 cells [3])	EC50 (HT-29 cells [4])	IC50 (BT-549 cells)	IC50 (OVCAR3 cells [5])
O=C(Nc1cn2cncc2c(N2CCC(F)(F)CC2)n1)c1ccc(NS(=O)(=O)CCO)cc1N1CCC2(CC1)CC2 [Compound 27]				23.1 nM									> 10000 nM	27.2 nM	141 nM	> 10000 nM	34.6 nM	81.9 nM	38.6 nM
O=C(Nc1cc2nn[nH]c2c(N2CCC(F)(F)CC2)n1)c1ccc(NS(=O)(=O)CCO)cc1N1CCC2(CC1)CC2 [Compound 28]				33.4 nM									> 10000 nM	23.4 nM	321 nM	> 10000 nM	77.8 nM	117 nM	27.4 nM
